Structures are written as SMILES.

The target in test [1] is T1, D(3) dopamine receptor (Homo sapiens, UniProt P35462). In words: biochemical.
Test [2] concerns the target T2, D(2) dopamine receptor (Homo sapiens, UniProt P14416). The test is described as follows: biochemical.
Another test addresses T3, D(4) dopamine receptor (Homo sapiens, UniProt P21917).
T3 sequence (P21917 whole entry): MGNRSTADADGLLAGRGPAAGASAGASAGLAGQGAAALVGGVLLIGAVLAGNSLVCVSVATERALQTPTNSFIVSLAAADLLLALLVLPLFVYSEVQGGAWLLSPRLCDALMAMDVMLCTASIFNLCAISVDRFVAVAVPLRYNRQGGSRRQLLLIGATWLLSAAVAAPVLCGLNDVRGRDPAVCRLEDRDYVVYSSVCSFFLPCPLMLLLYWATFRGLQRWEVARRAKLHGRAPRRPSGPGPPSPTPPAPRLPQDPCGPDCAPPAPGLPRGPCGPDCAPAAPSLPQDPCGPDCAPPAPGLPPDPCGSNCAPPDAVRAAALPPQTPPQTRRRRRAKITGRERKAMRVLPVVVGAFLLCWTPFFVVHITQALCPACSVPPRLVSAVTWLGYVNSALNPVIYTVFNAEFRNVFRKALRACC

In test [3] the target is T2, D(2) dopamine receptor. In words: biochemical. The source holds these as a separate data set.
The next test has as its target D(1A) dopamine receptor (Bos taurus, UniProt Q95136).
Test [4] deals with T1, D(3) dopamine receptor. To be noted: cho.
Test [5] concerns the target T2, D(2) dopamine receptor. In words: Ability to displace [3H]spiperone [0.5 nM (Kd=0.2-0.45 nM)] from human cloned dopamine receptor D2S expressed in CHO cells at 0.5 nM concentration. In kind it is cell-based.

T1 sequence (P35462 whole entry): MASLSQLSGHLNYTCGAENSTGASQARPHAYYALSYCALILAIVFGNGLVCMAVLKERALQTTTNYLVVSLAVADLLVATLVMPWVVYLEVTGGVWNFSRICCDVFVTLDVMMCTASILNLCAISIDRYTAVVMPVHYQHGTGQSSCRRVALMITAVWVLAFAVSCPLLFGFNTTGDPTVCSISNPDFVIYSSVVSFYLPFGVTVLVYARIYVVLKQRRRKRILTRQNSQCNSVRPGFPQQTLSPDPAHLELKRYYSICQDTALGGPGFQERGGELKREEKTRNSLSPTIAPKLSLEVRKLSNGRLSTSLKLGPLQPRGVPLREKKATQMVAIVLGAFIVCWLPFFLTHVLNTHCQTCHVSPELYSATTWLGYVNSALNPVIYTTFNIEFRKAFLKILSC
T2 sequence (P14416 whole entry): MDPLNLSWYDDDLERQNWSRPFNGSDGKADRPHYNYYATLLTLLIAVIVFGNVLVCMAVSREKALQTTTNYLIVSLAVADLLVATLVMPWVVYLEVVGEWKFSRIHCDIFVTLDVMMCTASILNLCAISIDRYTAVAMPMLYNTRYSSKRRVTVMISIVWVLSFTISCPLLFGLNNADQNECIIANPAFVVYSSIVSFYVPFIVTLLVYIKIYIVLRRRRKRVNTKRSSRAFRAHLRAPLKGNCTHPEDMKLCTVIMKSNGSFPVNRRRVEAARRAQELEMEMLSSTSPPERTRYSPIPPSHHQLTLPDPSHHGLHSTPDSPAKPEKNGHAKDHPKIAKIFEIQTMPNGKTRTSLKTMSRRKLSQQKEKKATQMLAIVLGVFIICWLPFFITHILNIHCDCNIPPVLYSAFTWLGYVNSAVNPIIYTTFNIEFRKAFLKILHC
Chain of D(1A) dopamine receptor (Q95136 whole entry): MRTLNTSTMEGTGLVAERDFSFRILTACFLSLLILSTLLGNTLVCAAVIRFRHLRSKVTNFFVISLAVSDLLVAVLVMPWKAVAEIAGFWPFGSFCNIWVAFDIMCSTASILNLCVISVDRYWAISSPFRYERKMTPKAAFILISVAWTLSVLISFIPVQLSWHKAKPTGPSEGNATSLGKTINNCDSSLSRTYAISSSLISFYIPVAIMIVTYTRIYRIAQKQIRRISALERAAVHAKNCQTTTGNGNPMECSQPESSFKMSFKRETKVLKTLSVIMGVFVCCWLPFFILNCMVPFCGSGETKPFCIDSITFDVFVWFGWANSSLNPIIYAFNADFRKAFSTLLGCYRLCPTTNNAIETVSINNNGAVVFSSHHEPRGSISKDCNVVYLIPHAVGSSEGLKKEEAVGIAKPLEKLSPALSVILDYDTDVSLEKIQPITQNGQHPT

For `CNc1cc(OC)c(C(=O)NC2CCN(Cc3ccccc3)CC2)cc1Cl`, the inhibition constant Ki was 160 nM on D(3) dopamine receptor [1]; 24 nM at D(2) dopamine receptor [2]; 8.3 nM at D(4) dopamine receptor; 15 nM on D(2) dopamine receptor [3]; 6800 nM at D(1A) dopamine receptor.

With `COc1c(C(=O)N[C@@H]2CCN(Cc3ccccc3)C2)cc(C#Cc2ccccc2)c2ccccc12` (stereo in doubt), the inhibition constant Ki at D(3) dopamine receptor [4] came to 1000 nM; at D(2) dopamine receptor [2] it was 7700 nM; at D(4) dopamine receptor, 1500 nM; on D(2) dopamine receptor [3], 5500 nM; on D(1A) dopamine receptor, 3300 nM.

With `CNc1cc(OC)c(C(=O)N[C@H]2CCN(Cc3ccccc3)C[C@@H]2C)cc1Cl` (stereo in doubt), the Ki at D(3) dopamine receptor [1] is 13 nM; on D(2) dopamine receptor [2] it was 8 nM; on D(4) dopamine receptor it was 1.6 nM; at D(2) dopamine receptor [3], 6.4 nM; at D(1A) dopamine receptor it was 4400 nM.

With `CNc1cc(OC)c(C(=O)N[C@H]2CN(Cc3ccccc3)C[C@@H]2C)cc1Cl` (stereo in doubt), the Ki on D(3) dopamine receptor [1] amounted to 27 nM; at D(2) dopamine receptor [2], 15 nM; at D(4) dopamine receptor, 4.3 nM; at D(2) dopamine receptor [3], 11 nM; at D(1A) dopamine receptor it was 5300 nM.

With `COc1cc(N)c(Cl)cc1C(=O)N[C@H]1CCCN(Cc2ccccc2)C1` (stereo in doubt), the Ki on D(3) dopamine receptor [1] was 8700 nM; on D(2) dopamine receptor [2], 7900 nM; on D(4) dopamine receptor it was 530 nM; on D(2) dopamine receptor [3], 4200 nM; at D(1A) dopamine receptor, 13000 nM.

Regarding `C#Cc1cc(C(=O)N[C@@H]2CCN(Cc3ccccc3)C2)c(OC)c2ccccc12` (stereo in doubt), the inhibition constant Ki amounted to 79 nM at D(3) dopamine receptor [1]; 500 nM at D(2) dopamine receptor [2]; 7 nM at D(4) dopamine receptor; 250 nM on D(2) dopamine receptor [3]; 6100 nM at D(1A) dopamine receptor.

With `COc1c(C(=O)NCC[C@@H]2CCN(Cc3ccccc3)C2)cc(Br)c2ccccc12` (stereo in doubt), the inhibition constant Ki worked out at 1000 nM on D(3) dopamine receptor [1]; 2500 nM at D(2) dopamine receptor [2]; 610 nM on D(4) dopamine receptor; 2800 nM on D(2) dopamine receptor [3]; 2100 nM at D(1A) dopamine receptor.

Turning to `COc1c(C(=O)N[C@@H]2CCN(Cc3ccccc3)C2)cc(Br)c2ccccc12` (stereo in doubt), the Ki at D(3) dopamine receptor [1] was determined as 84 nM; on D(2) dopamine receptor [2], 150 nM; at D(4) dopamine receptor, 21 nM; on D(2) dopamine receptor [3], 150 nM; on D(1A) dopamine receptor, 7400 nM.

As for `COc1c(C(=O)N[C@H]2CN(Cc3ccccc3)C[C@H]2C)cc(Br)c2ccccc12` (stereo in doubt), the inhibition constant (Ki) at D(3) dopamine receptor [1] was 130 nM; at D(2) dopamine receptor [2], 290 nM; on D(4) dopamine receptor, 27 nM; at D(2) dopamine receptor [5], 170 nM; on D(1A) dopamine receptor, 4000 nM.

Take `COc1cc(N)c(Cl)cc1C(=O)N[C@H]1CCN(Cc2ccccc2)C[C@@H]1C` (stereo in doubt): the inhibitory constant (Ki) was found to be 20 nM on D(3) dopamine receptor [1]; 8.6 nM at D(2) dopamine receptor [2]; 7.4 nM at D(4) dopamine receptor; 7.4 nM on D(2) dopamine receptor [3]; 7100 nM on D(1A) dopamine receptor.

On to `COc1c(C(=O)N[C@@H]2CCN(Cc3ccccc3)C2)cc(I)c2ccccc12` (stereo in doubt), for which the inhibition constant Ki is 33 nM at D(3) dopamine receptor [1]; 190 nM on D(2) dopamine receptor [2]; 3.3 nM at D(4) dopamine receptor; 70 nM on D(2) dopamine receptor [3]; 6100 nM on D(1A) dopamine receptor.

As to `COc1c(C(=O)NC[C@@H]2CCN(Cc3ccccc3)C2)cc(Br)c2ccccc12` (stereo in doubt), the inhibitory constant (Ki) was 1000 nM on D(3) dopamine receptor [1]; 1300 nM at D(2) dopamine receptor [2]; 78 nM on D(4) dopamine receptor; 870 nM at D(2) dopamine receptor [3]; 2900 nM at D(1A) dopamine receptor.

Take `CNc1cc(OC)c(C(=O)N[C@H]2CN(Cc3ccccc3)C[C@H]2C)cc1Cl` (stereo in doubt): the inhibition constant (Ki) was determined as 1.8 nM on D(3) dopamine receptor [1]; 2.3 nM on D(2) dopamine receptor [2]; 0.84 nM on D(4) dopamine receptor; 2 nM at D(2) dopamine receptor [3]; 4700 nM on D(1A) dopamine receptor.

With `COc1c(C(=O)N[C@H]2CN(Cc3ccccc3)C[C@@H]2C)cc(Br)c2ccccc12` (stereo in doubt), the Ki on D(3) dopamine receptor [1] was found to be 140 nM; at D(2) dopamine receptor [2] it was 490 nM; on D(4) dopamine receptor, 59 nM; at D(2) dopamine receptor [3], 260 nM; at D(1A) dopamine receptor, 4200 nM.

Regarding `CNc1cc(OC)c(C(=O)N[C@H]2CCCN(Cc3ccccc3)C2)cc1Cl` (stereo in doubt), the Ki at D(3) dopamine receptor [1] turned out to be 1500 nM; on D(2) dopamine receptor [2] it was 250 nM; on D(4) dopamine receptor, 64 nM; on D(2) dopamine receptor [3] it was 210 nM; at D(1A) dopamine receptor, 5600 nM.

As for `COc1cc(N)c(Cl)cc1C(=O)N[C@H]1CCN(Cc2ccccc2)C[C@@H]1C` (stereo in doubt; 3a), the inhibition constant (Ki) on D(3) dopamine receptor [1] was 2200 nM; on D(2) dopamine receptor [2], 470 nM; on D(4) dopamine receptor, 35 nM; at D(2) dopamine receptor [3] it was 340 nM; at D(1A) dopamine receptor, 19000 nM.

With `CNc1cc(OC)c(C(=O)N[C@H]2CCN(Cc3ccccc3)C[C@@H]2C)cc1Cl` (stereo in doubt; 3b), the Ki at D(3) dopamine receptor [1] amounted to 510 nM; on D(2) dopamine receptor [2] it was 54 nM; on D(4) dopamine receptor it was 4.7 nM; at D(2) dopamine receptor [3], 39 nM; at D(1A) dopamine receptor, 8200 nM.

Take `CNc1cc(OC)c(C(=O)N[C@H]2CN(Cc3ccccc3)C[C@@H]2C)cc1Cl` (stereo in doubt; 3c): the Ki on D(3) dopamine receptor [1] turned out to be 220 nM; on D(2) dopamine receptor [2], 21 nM; at D(4) dopamine receptor, 0.77 nM; on D(2) dopamine receptor [3], 19 nM; at D(1A) dopamine receptor it was 12000 nM.

In the case of `COc1c(C(=O)N[C@H]2CN(Cc3ccccc3)C[C@@H]2C)cc(Br)c2ccccc12` (stereo in doubt; 3d), the Ki worked out at 740 nM on D(3) dopamine receptor [1]; 1000 nM at D(2) dopamine receptor [2]; 17 nM at D(4) dopamine receptor; 700 nM on D(2) dopamine receptor [3]; 8400 nM on D(1A) dopamine receptor.

As for `CNc1cc(OC)c(C(=O)N[C@H]2CN(Cc3ccccc3)C[C@H]2C)cc1Cl` (stereo in doubt; 3e), the Ki on D(3) dopamine receptor [1] is 100 nM; at D(2) dopamine receptor [2], 3.7 nM; at D(4) dopamine receptor, 0.23 nM; on D(2) dopamine receptor [3], 3 nM; on D(1A) dopamine receptor, 4100 nM.

As for `COc1c(C(=O)N[C@H]2CN(Cc3ccccc3)C[C@H]2C)cc(Br)c2ccccc12` (stereo in doubt; 3f), the inhibition constant Ki at D(3) dopamine receptor [1] is 390 nM; at D(2) dopamine receptor [2] it was 200 nM; at D(4) dopamine receptor it was 2.7 nM; at D(2) dopamine receptor [3], 135 nM; at D(1A) dopamine receptor it was 4700 nM.

`COc1c(C(=O)N[C@@H]2CCN(Cc3ccccc3)C2)cc(Br)c2ccccc12` (stereo in doubt; 3g): the inhibitory constant (Ki) at D(3) dopamine receptor [1] came to 250 nM; at D(2) dopamine receptor [2] it was 180 nM; at D(4) dopamine receptor, 5 nM; at D(2) dopamine receptor [5] it was 130 nM; on D(1A) dopamine receptor, 7200 nM.

As to `COc1c(C(=O)N[C@@H]2CCN(Cc3ccccc3)C2)cc(I)c2ccccc12` (stereo in doubt; 3h), the inhibition constant (Ki) on D(3) dopamine receptor [1] came to 34 nM; at D(2) dopamine receptor [2], 60 nM; on D(4) dopamine receptor, 1.2 nM; on D(2) dopamine receptor [3], 23 nM; at D(1A) dopamine receptor it was 3000 nM.

Consider `C#Cc1cc(C(=O)N[C@@H]2CCN(Cc3ccccc3)C2)c(OC)c2ccccc12` (stereo in doubt; 3i), for which the inhibition constant (Ki) at D(3) dopamine receptor [1] is 86 nM; at D(2) dopamine receptor [2] it was 190 nM; at D(4) dopamine receptor it was 2.5 nM; on D(2) dopamine receptor [3] it was 82 nM; on D(1A) dopamine receptor, 3300 nM.

In the case of `COc1c(C(=O)N[C@@H]2CCN(Cc3ccccc3)C2)cc(C#Cc2ccccc2)c2ccccc12` (stereo in doubt; 3j), the Ki worked out at 1000 nM on D(3) dopamine receptor [1]; 6400 nM at D(2) dopamine receptor [2]; 500 nM on D(4) dopamine receptor; 4000 nM at D(2) dopamine receptor [3]; 2800 nM on D(1A) dopamine receptor.

Take `COc1c(C(=O)NC[C@@H]2CCN(Cc3ccccc3)C2)cc(Br)c2ccccc12` (stereo in doubt; 3k): the Ki at D(3) dopamine receptor [1] came to 410 nM; at D(2) dopamine receptor [2], 640 nM; at D(4) dopamine receptor, 130 nM; at D(2) dopamine receptor [3], 420 nM; at D(1A) dopamine receptor, 2100 nM.

As for `COc1c(C(=O)NCC[C@@H]2CCN(Cc3ccccc3)C2)cc(Br)c2ccccc12` (stereo in doubt; 3l), the Ki at D(3) dopamine receptor [1] was 580 nM; at D(2) dopamine receptor [2], 2000 nM; at D(4) dopamine receptor it was 500 nM; on D(2) dopamine receptor [3] it was 1900 nM; at D(1A) dopamine receptor, 1700 nM.

Turning to `COc1cc(N)c(Cl)cc1C(=O)N[C@H]1CCCN(Cc2ccccc2)C1` (stereo in doubt; 5a), the Ki at D(3) dopamine receptor [1] stood at 2900 nM; on D(2) dopamine receptor [2] it was 1600 nM; on D(4) dopamine receptor, 200 nM; at D(2) dopamine receptor [3], 1100 nM; on D(1A) dopamine receptor, 17000 nM.

Take `CNc1cc(OC)c(C(=O)N[C@H]2CCCN(Cc3ccccc3)C2)cc1Cl` (stereo in doubt; 5b): the Ki at D(3) dopamine receptor [1] turned out to be 560 nM; on D(2) dopamine receptor [2], 170 nM; on D(4) dopamine receptor, 25 nM; on D(2) dopamine receptor [3], 130 nM; on D(1A) dopamine receptor, 10000 nM.

The Ki is a dissociation constant, usually derived from enzyme kinetics or from competition with a known ligand. Low readings indicate tighter binding, high ones weaker binding.

Values taken from ChEMBL document CHEMBL1136241 (Bioorg Med Chem Lett, 2003).
